From patent publication US9809542B2, “Spiroheterocyclically substituted tetramic acid derivatives” (BAYER INTELLECTUAL PROPERTY GMBH, priority 2010, dated 2017)

Columns and labels:
Assay type in all cases: in vivo
[1] = tested on: Echinocloa crus-galli; test: Herbicidal pre-emergence action; details: pre-emergence method, 320 g of a.i./ha; about 3 weeks
From the text: 1. Herbicidal Pre-Emergence Action
(§1) • Seeds of monocotyledonous and dicotyledonous weed and crop plants are placed in sandy loam in wood fibre pots and covered with soil. The test compounds, formulated in the form of wettable powders (WP), are then, as aqueous suspension with a water application rate of 600 l/ha (converted), with 0.2% of wetting agent added, applied to the surface of the covering soil in various dosages. • After the treatment, the pots are placed in a greenhouse and kept under good growth conditions for the test plants. The visual assessment of the emergence damage on the test plants is carried out after a trial period of about 3 weeks by comparison with untreated controls (herbicidal effect in %: 100% effect=the plants have died, 0% effect=like control plants). • In addition to the compounds mentioned above, the following compounds, applied by the pre-emergence method at 320 g of a.i./ha, show an efficacy of 90% against Lolium multiflorum and Setaria viridis: I-1-a-1 • In addition to the compounds mentioned above, the following compounds, applied by the pre-emergence method at 320 g of a.i./ha, show an efficacy of 100% against Echinocloa crus-galli: I-a-2, I-b-1, I-b-2, I-c-2 2. Herbicidal Post-Emergence Action • Seeds of monocotyledonous and dicotyledonous weed and crop plants are placed in sandy loam in wood fibre pots, covered with soil and cultivated in a greenhouse under good growth conditions. 2-3 weeks after sowing, the test plants are treated at the one-leaf stage. The test compounds, formulated as wettable powders (WP), are, in various dosages at a water application rate of 600 l/ha (converted), with 0.2% of wetting agent added, sprayed onto the green parts of the plants. After the test plants have been kept in the greenhouse under optimum growth conditions for about 3 weeks, the effect of the preparations is rated visually in comparison to untreated controls (herbicidal effect in %: 100% effect=the plants have died, 0% effect=like control plants). • In addition to the compounds mentioned above, the following compounds, applied by the post-emergence method at 80 g/ha, show an efficacy of 90% against Echinocloa crus-galli and Lolium multiflorum: I-a-3, I-a-4, I-a-5.

[2] = tested on: caterpillars of the armyworm (Spodoptera frugiperda); test: Spodoptera frugiperda test (SPODFR spray treatment); details: application rate 500 g/ha, maize leaf discs, after 7 days
Procedure: Spodoptera frugiperda Test (SPODFR Spray Treatment)
(§2) Solvents: 78.0 parts by weight of acetone
(§3) • 1.5 parts by weight of dimethylformamide Emulsifier: 0.5 part by weight of alkylaryl polyglycol ether
To produce a suitable preparation of active compound, 1 part by weight of active compound is mixed with the stated amounts of solvents and emulsifier, and the concentrate is diluted with emulsifier-containing water to the desired concentration. Discs of maize leaves (Zea mays) are sprayed with an active compound preparation of the desired concentration and, after drying, populated with caterpillars of the armyworm (Spodoptera frugiperda).
After 7 days, the effect in % is determined. 100% means that all caterpillars have been killed; 0% means that none of the caterpillars have been killed.

[3] = tested on: Lucilia cuprina larva; test: Lucilia cuprina test (LUCICU); details: application rate 100 ppm; treated horse meat; after 2 days
Procedure: Lucilia cuprina Test (LUCICU)
Solvent: Dimethyl sulphoxide
To produce a suitable preparation of active compound, 10 mg of active compound are mixed with 0.5 ml of dimethyl sulphoxide and the concentrate is diluted with water to the desired concentration. Containers containing horse meat treated with the active compound preparation of the desired concentration are populated with about 20 Lucilia cuprina larva.
After 2 days, the kill in % is determined. 100% means that all larva have been killed; 0% means that none of the larva have been killed.

[4] = tested on: green peach aphid (Myzus persicae); test: Myzus test (MYZUPE spray treatment); details: application rate 500 g/ha, Chinese cabbage leaf discs, after 6 days
Procedure: Myzus Test (MYZUPE Spray Treatment)
Solvents: 78 parts by weight of acetone
as §3
To produce a suitable preparation of active compound, 1 part by weight of active compound is mixed with the stated amounts of solvents and emulsifier, and the concentrate is diluted with emulsifier-containing water to the desired concentration. Discs of Chinese cabbage (Brassica pekinensis) which are infested by all stages of the green peach aphid (Myzus persicae) are sprayed with an active compound preparation of the desired concentration. After 6 days, the effect in % is determined. 100% means that all aphids have been killed; 0% means that none of the aphids have been killed.

[5] = tested on: greenhouse red spidermite (Tetranychus urticae); test: Tetranychus test OP-resistant (TETRUR spray treatment); details: application rate 100 g/ha, bean leaf discs, after 6 days
Procedure: Tetranychus Test OP-Resistant (TETRUR Spray Treatment)
as §2, §3
To produce a suitable preparation of active compound, 1 part by weight of active compound is mixed with the stated amounts of solvents and emulsifier, and the concentrate is diluted with emulsifier-containing water to the desired concentration. Discs of bean leaves (Phaseolus vulgaris) which are infested by all stages of the greenhouse red spidermite (Tetranychus urticae) are sprayed with an active compound preparation of the desired concentration.
After 6 days, the effect in % is determined. 100% means that all spidermites have been killed; 0% means that none of the spidermites have been killed.

[6] = tested on: larva of the mustard beetle (Phaedon cochleariae); test: Phaedon test (PHAECO spray treatment); details: Chinese cabbage leaf discs, after 7 days
Procedure: Phaedon Test ([…] Spray Treatment) Solvents: 78.0 parts by weight of acetone • • 1.5 parts by weight of dimethylformamide Emulsifier: 0.5 part by weight of alkylaryl polyglycol ether To produce a suitable preparation of active compound, one part by weight of active compound is mixed with the stated amounts of solvents and emulsifier, and the concentrate is diluted with emulsifier-containing water to the desired concentration. Discs of Chinese cabbage (Brassica pekinensis) are sprayed with an active compound preparation of the desired concentration and, after drying, populated with larva of the mustard beetle (Phaedon cochleariae).

[7] = tested on: Echinocloa crus-galli; test: Herbicidal post-emergence action; details: post-emergence method, 80 g/ha; about 3 weeks
From the text: as §1

[8] = tested on: Lolium multiflorum; test: Herbicidal post-emergence action; details: post-emergence method, 80 g/ha; about 3 weeks
From the text: as §1

SMILES | efficacy (effect in %, caterpillars killed) [2] | efficacy (effect in %, aphids killed) [4] | efficacy (effect in %, spidermites killed) [5] | other results
CCOC(=O)OC1=C(c2c(C)ccc(-c3ccc(F)cc3)c2C)C(=O)NC12CCN(OCC)CC2 [I-c-2] | 100% | 100% |  | efficacy (herbicidal effect in %) [1]: 100%; efficacy (kill in %) [3]: 80%
CCc1ccc(-c2ccc(F)cc2)c(C)c1C1=C(O)C2(CCN(OC)CC2)NC1=O [I-a-8] |  | 90% | 90% | efficacy (effect in %, beetle larva killed) ([6]; application rate 500 g/ha): 100%
CCON1CCC2(CC1)NC(=O)C(c1cc(-c3ccc(F)cc3)ccc1C)=C2O [I-a-6] | 100% | 100% | 90% | efficacy (effect in %, beetle larva killed) ([6]; application rate 100 g/ha): 100%
CON1CCC2(CC1)NC(=O)C(c1cc(-c3ccc(F)cc3)ccc1C)=C2O [I-a-5] | 100% | 100% | 90% | efficacy (herbicidal effect in %) [7]: 90%; efficacy (herbicidal effect in %) [8]: 90%
CCON1CCC2(CC1)NC(=O)C(c1c(C)ccc(-c3ccc(F)c(F)c3)c1C)=C2O [I-a-11] |  | 100% | 100% | 
CCON1CCC2(CC1)NC(=O)C(c1c(C)ccc(-c3ccc(Cl)c(F)c3)c1C)=C2O [I-a-14] | 100% | 100% | 90% | 
CON1CCC2(CC1)NC(=O)C(c1c(C)ccc(-c3ccc(Cl)c(F)c3)c1C)=C2O [I-a-15] | 100% | 100% | 100% | 
CCON1CCC2(CC1)NC(=O)C(c1c(C)ccc(-c3ccc(F)c(Cl)c3)c1C)=C2O [I-a-12] | 83% | 100% | 100% | 
CCON1CCC2(CC1)NC(=O)C(c1cc(-c3ccc(F)cc3)ccc1Cl)=C2O [I-a-3] | 83% | 100% | 90% | efficacy (herbicidal effect in %) [7]: 90%; efficacy (herbicidal effect in %) [8]: 90%; efficacy (effect in %, beetle larva killed) ([6]; application rate 500 g/ha): 100%
CCOC(=O)OC1=C(c2c(OC)ccc(-c3ccc(F)cc3)c2Cl)C(=O)NC12CCN(OC)CC2 [I-c-3] |  |  | 90% | 
COc1ccc(-c2ccc(F)cc2)c(Cl)c1C1=C(O)C2(CCN(OC)CC2)NC1=O [I-a-10] |  | 100% | 90% | 
CCON1CCC2(CC1)NC(=O)C(c1c(CC)ccc(-c3ccc(F)cc3)c1C)=C2O [I-a-9] |  | 90% | 90% | efficacy (effect in %, beetle larva killed) ([6]; application rate 500 g/ha): 100%
CON1CCC2(CC1)NC(=O)C(c1cc(-c3ccc(F)cc3)ccc1Cl)=C2O [I-a-4] | 83% | 100% | 100% | efficacy (herbicidal effect in %) [7]: 90%; efficacy (herbicidal effect in %) [8]: 90%
CON1CCC2(CC1)NC(=O)C(c1c(C)ccc(-c3ccc(F)c(F)c3)c1C)=C2O [I-a-13] |  | 100% | 100% | 
CCOC(=O)OC1=C(c2c(C)ccc(-c3ccc(F)cc3)c2C)C(=O)NC12CCN(OC)CC2 [I-c-1] | 100% | 100% |  | 
CCON1CCC2(CC1)NC(=O)C(c1c(C)ccc(-c3ccc(F)cc3)c1C)=C2OC(=O)C(C)C [I-b-2] | 100% | 100% |  | efficacy (herbicidal effect in %) [1]: 100%
CON1CCC2(CC1)NC(=O)C(c1c(C)ccc(-c3ccc(F)cc3)c1C)=C2OC(=O)C(C)C [I-b-1] | 100% | 100% |  | efficacy (herbicidal effect in %) [1]: 100%
CCON1CCC2(CC1)NC(=O)C(c1c(OC)ccc(-c3ccc(F)cc3)c1Cl)=C2O [I-a-7] |  | 100% | 90% | 
